Our source for the Activity, IC50 and Imax values is ChEMBL document CHEMBL4393698, “Exploring the effect of chirality on the therapeutic potential of N-alkyl-deoxyiminosugars: anti-inflammatory response to Pseudomonas aeruginosa infections for application in CF lung disease” (Eur J Med Chem, 2019).

SMILES strings stand for the structures. Calls of active or inactive are those of the source. The calls are words filed in the database; no cut-off is given here.

A short description of data set [1]: Toxicity in Pseudomonas aeruginosa PAO1 infected C57Bl/6NCr mouse assessed as change in body weight at 100 mg/kg, po administered via gavage pretreated for 1 to 24 hrs followed by Pseudomonas aeruginosa PAO1 challenge and measured after 6 hrs. To be noted: in vivo. The data set is classed as organism-based.
Data set [2] concerns CuFi-1. As to the kind of experiment: Anti-inflammatory activity in human CuFi1 cells assessed as reduction in Pseudomonas aeruginosa PAO1-induced IL-8 mRNA expression level pretreated for 1 hr followed by Pseudomonas aeruginosa PAO1 challenge and measured after 4 hrs by RT-PCR analysis. In kind it is functional, cell-based.
Data set [3] has as its system Pseudomonas aeruginosa. Briefly: Anti-inflammatory activity in Pseudomonas aeruginosa PAO1 infected C57Bl/6NCr mouse assessed as reduction in bacterial CFU in lungs at 10 mg/kg, po administered via gavage pretreated for 1 to 24 hrs followed by Pseudomonas aeruginosa PAO1 challenge and measured after 6 hrs. The data set is classed as functional, organism-based.
The species named for a further data set is Homo sapiens. Briefly: Anti-inflammatory activity in human Bronchial epithelial cells assessed as reduction in Pseudomonas aeruginosa PAO1-induced IL-8 mRNA expression level at 10 nM pretreated for 1 hr followed by Pseudomonas aeruginosa PAO1 challenge and measured after 4 hrs by RT-PCR analysis relative to control. The data set is classed as functional.

Data set [4] deals with CuFi-1. As to the kind of experiment: Anti-inflammatory activity in human CuFi1 cells assessed as reduction in Pseudomonas aeruginosa PAO1-induced IL-8 mRNA expression level pretreated for 1 hr followed by Pseudomonas aeruginosa PAO1 challenge and measured after 4 hrs by RT-PCR analysis relative to control. The data set is classed as functional.
Data set [5] concerns CuFi-1. As to the kind of experiment: Anti-inflammatory activity in human CuFi1 cells assessed as reduction in Pseudomonas aeruginosa PAO1-induced IL-8 mRNA expression level at 0.1 uM pretreated for 1 hr followed by Pseudomonas aeruginosa PAO1 challenge and measured after 4 hrs by RT-PCR analysis relative to control. The data set is classed as functional. Details: scale not given: the % may be the effect or the level left.

Data set [6] deals with Pseudomonas aeruginosa. As to the kind of experiment: Anti-inflammatory activity in Pseudomonas aeruginosa PAO1 infected C57Bl/6NCr mouse assessed as reduction in amount of neutrophils in lungs at 100 mg/kg, po administered via gavage pretreated for 1 to 24 hrs followed by Pseudomonas aeruginosa PAO1 challenge and measured after 6 hrs. In kind it is functional, organism-based.

Data set [7] relates to Pseudomonas aeruginosa. Briefly: Anti-inflammatory activity in Pseudomonas aeruginosa PAO1 infected C57Bl/6NCr mouse assessed as reduction in bacterial CFU in BAL at 10 mg/kg, po administered via gavage pretreated for 1 to 24 hrs followed by Pseudomonas aeruginosa PAO1 challenge and measured after 6 hrs. The data set is classed as functional, organism-based.
The subject of data set [8] is Pseudomonas aeruginosa. As to the kind of experiment: Anti-inflammatory activity in Pseudomonas aeruginosa PAO1 infected C57Bl/6NCr mouse assessed as increase in alveolar macrophages in lungs at 10 mg/kg, po administered via gavage pretreated for 1 to 24 hrs followed by Pseudomonas aeruginosa PAO1 challenge and measured after 6 hrs. The data set is classed as functional, organism-based.

Data set [9] has as its system CuFi-1. Briefly: Induction of apoptosis in human CuFi1 cells incubated for 48 hrs by Muse Annexin V based cell counter assay. Particulars: cufi-1, 48 h.
The test system of data set [10] is CuFi-1. Briefly: Cytotoxicity against human CuFi1 cells assessed as reduction in cell viability incubated for 48 hrs by Muse cell analyser method. The data set is classed as cell-based. Particulars: cufi-1, 48 h.
The next data set addresses T1, Beta-glucosidase (Homo sapiens, UniProt Q9HCG7).
T1 sequence (Q9HCG7 whole entry): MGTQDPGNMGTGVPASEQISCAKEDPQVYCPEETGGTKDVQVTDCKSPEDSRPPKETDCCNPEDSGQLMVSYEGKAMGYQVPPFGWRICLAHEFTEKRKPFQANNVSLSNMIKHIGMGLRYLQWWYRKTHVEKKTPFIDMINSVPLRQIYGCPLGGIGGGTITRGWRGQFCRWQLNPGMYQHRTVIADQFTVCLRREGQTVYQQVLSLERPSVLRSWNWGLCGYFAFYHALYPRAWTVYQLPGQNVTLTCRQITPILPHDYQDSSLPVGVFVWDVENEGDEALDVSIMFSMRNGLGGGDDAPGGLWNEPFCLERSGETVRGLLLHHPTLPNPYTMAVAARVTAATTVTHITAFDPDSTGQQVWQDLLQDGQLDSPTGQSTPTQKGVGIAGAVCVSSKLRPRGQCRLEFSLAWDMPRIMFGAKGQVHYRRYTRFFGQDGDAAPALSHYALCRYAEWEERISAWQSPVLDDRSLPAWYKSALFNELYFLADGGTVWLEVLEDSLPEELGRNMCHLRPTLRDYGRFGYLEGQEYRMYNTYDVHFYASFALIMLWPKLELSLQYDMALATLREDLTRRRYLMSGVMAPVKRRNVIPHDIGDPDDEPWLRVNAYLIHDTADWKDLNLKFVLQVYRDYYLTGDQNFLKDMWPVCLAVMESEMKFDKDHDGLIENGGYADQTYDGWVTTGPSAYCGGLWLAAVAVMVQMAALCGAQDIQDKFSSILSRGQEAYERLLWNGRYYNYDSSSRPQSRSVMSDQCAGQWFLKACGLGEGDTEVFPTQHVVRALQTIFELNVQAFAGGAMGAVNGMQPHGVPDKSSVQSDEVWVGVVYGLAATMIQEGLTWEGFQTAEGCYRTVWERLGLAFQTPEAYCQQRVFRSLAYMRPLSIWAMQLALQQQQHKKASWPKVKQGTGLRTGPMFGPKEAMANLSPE

Data set [11] concerns the target T2, Lysosomal acid glucosylceramidase (Homo sapiens) (UniProt P04062).
T2 sequence (whole entry): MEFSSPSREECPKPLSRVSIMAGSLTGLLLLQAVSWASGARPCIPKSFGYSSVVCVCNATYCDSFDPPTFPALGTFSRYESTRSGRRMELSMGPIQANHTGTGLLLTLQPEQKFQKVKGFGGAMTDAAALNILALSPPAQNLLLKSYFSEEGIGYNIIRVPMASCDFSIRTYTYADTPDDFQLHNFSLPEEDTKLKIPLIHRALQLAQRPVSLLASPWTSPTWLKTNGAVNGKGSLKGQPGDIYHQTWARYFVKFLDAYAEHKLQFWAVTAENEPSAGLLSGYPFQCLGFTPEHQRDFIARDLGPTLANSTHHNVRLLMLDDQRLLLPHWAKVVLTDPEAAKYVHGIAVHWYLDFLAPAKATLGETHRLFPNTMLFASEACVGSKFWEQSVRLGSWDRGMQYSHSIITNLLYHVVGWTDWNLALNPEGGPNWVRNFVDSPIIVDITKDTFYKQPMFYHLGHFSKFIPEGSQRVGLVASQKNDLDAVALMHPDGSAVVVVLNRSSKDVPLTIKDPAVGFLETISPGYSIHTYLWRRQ
Particulars: SH-SY5Y, 1 nM.

Data set [12] addresses T3, Beta-glucosidase (Homo sapiens) (UniProt Q9HCG7).
T3 sequence (whole entry): T1 sequence (Q9HCG7 whole entry)
To be noted: SH-SY5Y, 1 nM.

Data set [13] deals with Pseudomonas aeruginosa. As to the kind of experiment: Anti-inflammatory activity in Pseudomonas aeruginosa PAO1 infected C57Bl/6NCr mouse assessed as reduction in bacteria detected in lungs dosed orally via gavage pretreated for 1 to 24 hrs followed by Pseudomonas aeruginosa PAO1 challenge and measured after 6 hrs. In kind it is functional, organism-based.
Data set [14] in a line: Toxicity in Pseudomonas aeruginosa PAO1 infected C57Bl/6NCr mouse assessed as change in body weight at 10 to 100 mg/kg, po administered via gavage pretreated for 1 to 24 hrs followed by Pseudomonas aeruginosa PAO1 challenge and measured after 6 hrs. The data set is classed as organism-based. To be noted: in vivo.
For data set [15], the system named is Pseudomonas aeruginosa. Briefly: Anti-inflammatory activity in Pseudomonas aeruginosa PAO1 infected C57Bl/6NCr mouse assessed as reduction in amount of neutrophils recruited in BAL at 10 mg/kg, po administered via gavage pretreated for 1 to 24 hrs followed by Pseudomonas aeruginosa PAO1 challenge and measured after 6 hrs. In kind it is functional, organism-based.

Data set [16] deals with Pseudomonas aeruginosa. Briefly: Anti-inflammatory activity in Pseudomonas aeruginosa PAO1 infected C57Bl/6NCr mouse assessed as reduction in amount of bacteria recovered in airway at 10 mg/kg, po administered via gavage pretreated for 1 to 24 hrs followed by Pseudomonas aeruginosa PAO1 challenge and measured after 6 hrs. In kind it is functional, organism-based.

Take `CCCCN1CC(O)C(O)C(O)C1CO` (racemic): the Activity result in [1] is “Non-Toxic”; with CuFi-1 [5], 30%; with CuFi-1 [9], “Non-Toxic”; in the data set with CuFi-1 [10] it was “Non-Toxic”. The IC50 in the data set on CuFi-1 [2] was 0.95 nM. For the same molecule, the result with Pseudomonas aeruginosa [3], in the data set filed under Homo sapiens, in the data set on Pseudomonas aeruginosa [7] and with Pseudomonas aeruginosa [8] was Active. In the data set with CuFi-1 [4], the Imax was 36%. The outcome in the data set with Pseudomonas aeruginosa [6] was inactive.

In the case of `OC[C@@H]1[C@@H](O)[C@H](O)[C@@H](O)CN1CCCCCOCC12CC3CC(CC(C3)C1)C2`, in the data set on CuFi-1 [2], the IC50 came out at 1.84 nM. In addition, the Activity entry with CuFi-1 [9] and with CuFi-1 [10] was “Non-Toxic” throughout.

As to `CCCCCCOCCCCCN1C[C@@H](O)[C@H](O)[C@@H](O)[C@@H]1CO`, on Beta-glucosidase, 36700 nM corresponded to half-maximal inhibition (IC50). Moreover, the Imax worked out at 65% in data set [11] and 100% in [12].

With `CCCCCCCCCN1CC(O)C(O)C(O)C1CO` (racemic), in the data set on CuFi-1 [2], the half-inhibitory concentration (IC50) was found to be 0.6 nM. The Imax with CuFi-1 [4] worked out at 12%. The Activity with CuFi-1 [5] is reported as 22%; in the data set on CuFi-1 [9] it was “Non-Toxic”; in the data set with CuFi-1 [10], “Non-Toxic”.

In the case of `CCCCCCCCCN1C[C@H](O)[C@@H](O)[C@H](O)[C@H]1CO`, the values for the Activity in the data set on CuFi-1 [5], with CuFi-1 [9] and in the data set on CuFi-1 [10] were 8%, “Non-Toxic” and “Non-Toxic”, respectively.

Turning to `OCC1C(O)C(O)C(O)CN1CCCCCOCC12CC3CC(CC(C3)C1)C2` (racemic), in the data set on CuFi-1 [2], the IC50 came to 1.84 nM. Further, the result in the data set listed under Homo sapiens was Active. Also, in the data set with CuFi-1 [4], the Imax turned out to be 29%. Moreover, the Activity in the data set on CuFi-1 [5] is on record as 42%; with CuFi-1 [9], “Non-Toxic”; in the data set with CuFi-1 [10] it was “Non-Toxic”.

`CCCCN1C[C@@H](O)[C@H](O)[C@@H](O)[C@@H]1CO`: the outcome with Pseudomonas aeruginosa [13] was inactive. The Activity result is listed as “<=20%” in the data set with CuFi-1 [5], “Non-Toxic” in data set [14], “Non-Toxic” in the data set on CuFi-1 [9] and “Non-Toxic” in the data set on CuFi-1 [10]. Also, the result with Pseudomonas aeruginosa [15] and with Pseudomonas aeruginosa [16] was Active.

For `CCCCN1C[C@H](O)[C@@H](O)[C@H](O)[C@H]1CO`, in the data set on CuFi-1 [2], the IC50 is 2000 nM. Besides, the Imax in the data set with CuFi-1 [4] was 50%. For the same molecule, the Activity result (in [14]; in the data set on CuFi-1 [9]; in the data set with CuFi-1 [10]) was “Non-Toxic” in each case.

As to `CCCCCCCCCN1C[C@@H](O)[C@H](O)[C@@H](O)[C@@H]1CO`, the Activity was 16% in the data set with CuFi-1 [5], “Non-Toxic” with CuFi-1 [9] and “Non-Toxic” in the data set on CuFi-1 [10].

Consider `OC[C@H]1[C@H](O)[C@@H](O)[C@H](O)CN1CCCCCOCC12CC3CC(CC(C3)C1)C2`, for which the figures for the Activity in the data set with CuFi-1 [5], with CuFi-1 [9] and in the data set on CuFi-1 [10] were 29%, “Non-Toxic” and “Non-Toxic”, respectively.

Molecule `CCCCCCOCCCCCN1CC(O)C(O)C(O)C1CO` (racemic) returned an IC50 on Beta-glucosidase of 1 nM. Moreover, the Imax in data set [12] was determined as 100%.

`CCCCCCOCCCCCN1C[C@H](O)[C@@H](O)[C@H](O)[C@H]1CO` showed an IC50 on Beta-glucosidase of 0.4 nM. The Imax in data set [11] and in data set [12] was 100% each time.

A word on the IC50: it is the concentration that gives 50% inhibition.
